In patent US20260250320A1, “LIPIDATED PEPTIDE INHIBITORS OF INTERLEUKIN-23 RECEPTOR” (Janssen Pharmaceutica NV, priority 2023, published 2026):
*1 amine or outer side, *2 acyl side, *3 side chain or, on linkers, in order; H or OH if unused. Where a SMILES comes first, the peptide text is derived from it. Bridges are numbered along the chain shown (N, C = ends). Side-chain parts run from the residue outwards. [ ]: non-standard residue; d: D form. The star is where a group is joined. ξ: configuration not given here. X39 = O=C(O)CCCCCCCCCCCCCCCCC(=O)NC(CCC(=O)NCCCCCOCC(=O)*)C(=O)O; X11 = CN(CC(N)=O)C(=O)[C@H](Cc1cccnc1)NC(O)[C@H](CC(N)=O)N*; Trp(7-Me) = Cc1cccc2c(C[C@H](N)C(=O)O)c[nH]c12; C18 diacid = O=C(O)CCCCCCCCCCCCCCCCC(=O)*; γGlu = O=C(O)[C@H](CCC(=O)[*:2])N[*:1]; 2Nal = N[C@@H](Cc1ccc2ccccc2c1)C(=O)O; AEF = NCCOc1ccc(C[C@H](N)C(=O)O)cc1; ξγGlu = O=C(O)C(CCC(=O)[*:2])N[*:1]; X2 = C[N+](C)(C)C[C@@H](CC(=O)O)N*; 3Pal = N[C@@H](Cc1cccnc1)C(=O)O; NMeK = CN[C@@H](CCCCN)C(=O)O; Pen = CC(C)(S)[C@H](N)C(=O)O; Suc = O=C(CCC(=O)[*:2])[*:1]; Thp = NC1(C(=O)O)CCOCC1; AEEA = NCCOCCOCC(=O)O; ξK = NCCCCC(N)C(=O)O; Sar = CNCC(=O)O

Assays:
[1] = system: IL-23-stimulated phosphorylated STAT3 in peripheral blood mononuclear cells (PBMCs); assay: PBMC pSTAT3 Assay; assay type: cell-based; settings: PBMCs from healthy donors; 30 min preincubation with peptide; IL-23 5 ng/mL for 30 min; phospho-STAT3 by MSD
Procedure, shortened: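 Healthy-donor PBMCs expanded 4 days on anti-CD3 with 100 ng/mL IL-1β, starved ~4 h in RPMI-0.1% BSA, preincubated 30 min with peptide, then stimulated 30 min at 37 °C with 5 ng/mL IL-23. Lysate pSTAT3 measured by MSD phospho-STAT panel; IC50 derived.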

IL-23R = molecular target: T1, IL-23R (Homo sapiens, UniProt Q5VWK5); assay: IL23R Reporter Assay; assay type: cell-based; settings: HEK293 cells containing IL-23R, IL-12Rβ1 and STAT-inducible firefly luciferase reporter; 10 ng/mL IL-23 (EC90); 5 h
T1 construct: HEK293 cells containing IL-23R, IL-12Rβ1 and a firefly luciferase reporter gene driven by a STAT-inducible promoter (Promega); host or cells: HEK293
T1 sequence (Q5VWK5 24-629): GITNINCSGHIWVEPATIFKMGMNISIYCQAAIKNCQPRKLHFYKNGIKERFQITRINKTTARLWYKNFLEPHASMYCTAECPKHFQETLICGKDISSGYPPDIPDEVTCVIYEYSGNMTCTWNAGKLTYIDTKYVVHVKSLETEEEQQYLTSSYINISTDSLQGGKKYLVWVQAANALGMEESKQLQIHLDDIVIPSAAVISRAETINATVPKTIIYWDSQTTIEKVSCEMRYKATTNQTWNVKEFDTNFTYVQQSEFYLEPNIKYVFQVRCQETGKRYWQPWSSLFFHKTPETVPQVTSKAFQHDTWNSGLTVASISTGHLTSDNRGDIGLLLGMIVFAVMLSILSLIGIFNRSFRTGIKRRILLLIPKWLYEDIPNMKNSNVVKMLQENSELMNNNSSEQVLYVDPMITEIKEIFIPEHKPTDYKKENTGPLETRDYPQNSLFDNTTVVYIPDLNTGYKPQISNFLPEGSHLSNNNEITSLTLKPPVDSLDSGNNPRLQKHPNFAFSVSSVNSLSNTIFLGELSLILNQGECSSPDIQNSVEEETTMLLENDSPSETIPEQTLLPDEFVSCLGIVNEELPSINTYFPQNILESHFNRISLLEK
Procedure, shortened: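 HEK293 cells carrying IL-23R, IL-12Rβ1 and a STAT-driven firefly luciferase reporter (4000 cells/well) received compound, then 10 ng/mL IL-23 solution (EC90), and were incubated for 5 h at 37° C. BioGlo luminescence was normalised to IL-23 alone (0%) and 30 μM control inhibitor (100%). IC50 came from a 4-parameter Hill fit.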

Row | Compound | IC50 (IL-23R) [nM] | IC50 [1] [nM]
1 | CC(=O)NCCCCC1NC(=O)[C@H](Cc2c[nH]c3c(C)cccc23)NC(=O)[C@H]([C@@H](C)O)NC(=O)[C@H](CC(N)=O)NC(=O)[C@@H](NC(=O)[C@H](CCCCNC(=O)COCCOCCNC(=O)COCCOCCNC(=O)CC[C@H](NC(=O)CCCCCCCCCCCCCCCCC(=O)O)C(=O)O)NC(C)=O)C(C)(C)SSC(C)(C)[C@@H](C(=O)N[C@@H](Cc2ccc(OCCN)cc2)C(=O)N[C@@H](Cc2ccc3ccccc3c2)C(=O)NC2(C(=O)N[C@@H](CCCCNC(C)=O)C(=O)N[C@@H](CC(N)=O)C(=O)N[C@@H](Cc3cccnc3)C(=O)N(C)CC(N)=O)CCOCC2)NC1=O (stereo partly drawn) [compound 39, MeCO-K(PEG2PEG2gEC18OH)-Pen(3)-N-T-7MeW-K(Ac)-Pen(3)-AEF-2Nal-THP-K(Ac)-N-3Pya-Sar-CONH2] (Ac-K([AEEA-AEEA-γGlu-C18 diacid])[Pen]NT[Trp(7-Me)][ξK](Ac)[Pen][AEF][2Nal][Thp]K(Ac)N[3Pal][Sar]-NH2; disulfide 2-7) | < 50 | < 0.5
2 | CC(=O)NCCCC[C@@H]1NC(=O)[C@H](Cc2c[nH]c3c(C)cccc23)NC(=O)[C@H]([C@@H](C)O)NC(=O)[C@H](CC(N)=O)NC(=O)[C@@H](NC(=O)[C@@H](CCCNC(=N)N)NC(C)=O)C(C)(C)SSC(C)(C)[C@@H](C(=O)N[C@@H](Cc2ccc(OCCN)cc2)C(=O)N[C@@H](Cc2ccc3ccccc3c2)C(=O)NC2(C(=O)N[C@@H](CCCCNC(=O)CCC(=O)N[C@H](CC(=O)O)C[N+](C)(C)C)C(=O)N[C@@H](CC(N)=O)C(=O)N[C@@H](Cc3cccnc3)C(=O)N(C)[C@@H](CCCCNC(=O)COCCOCCNC(=O)COCCCCCNC(=O)CCC(NC(=O)CCCCCCCCCCCCCCCCC(=O)O)C(=O)O)C(N)=O)CCOCC2)NC1=O (stereo partly shown) [compound 41, MeCO-r-Pen(3)-N-T-7MeW-K(Ac)-Pen(3)-AEF-2Nal-THP-K(d)-N-3Pya-NMeK(PEG2PEG2gEC18OH)-CONH2] (Ac-[dR][Pen]NT[Trp(7-Me)]K(Ac)[Pen][AEF][2Nal][Thp]K([Suc-X2])N[3Pal][NMeK]([AEEA-X39])-NH2; disulfide 2-7) | 50 to 500 | < 0.5
3 | CC(=O)NCCCC[C@@H]1NC(=O)[C@H](Cc2c[nH]c3c(C)cccc23)NC(=O)[C@H]([C@@H](C)O)NC(=O)[C@H](CC(N)=O)NC(=O)[C@@H](NC(=O)[C@@H](CCCCNC(=O)COCCOCCNC(=O)COCCOCCNC(=O)CCC(NC(=O)CCCCCCCCCCCCCCCCC(=O)O)C(=O)O)NC(C)=O)C(C)(C)SSC(C)(C)[C@@H](C(=O)N[C@@H](Cc2ccc(OCCN)cc2)C(=O)N[C@@H](Cc2ccc3ccccc3c2)C(=O)NC2(C(=O)N[C@@H](CCC(=O)O)C(=O)N[C@@H](CC(N)=O)C(=O)N[C@@H](Cc3cccnc3)C(=O)N(C)[C@@H](CCCCNC(=O)CCC(=O)N[C@H](CC(=O)O)C[N+](C)(C)C)C(N)=O)CCOCC2)NC1=O (stereo partly shown) [compound 42, MeCO-k(PEG2PEG2gEC18OH)-Pen(3)-N-T-7MeW-K(Ac)-Pen(3)-AEF-2Nal-THP-E-N-3Pya-NMeK(d)-CONH2] (Ac-[dK]([AEEA-AEEA-ξγGlu-C18 diacid])[Pen]NT[Trp(7-Me)]K(Ac)[Pen][AEF][2Nal][Thp]EN[3Pal][NMeK]([Suc-X2])-NH2; disulfide 2-7) | < 50 | < 0.5
4 | CC(=O)NCCCC[C@@H]1NC(=O)[C@H](Cc2c[nH]c3c(C)cccc23)NC(=O)[C@H]([C@@H](C)O)NC(=O)[C@H](CC(N)=O)NC(=O)[C@@H](NC(=O)C(CCCNC(=N)N)CC(=O)COCCOCCNC(=O)COCCOCCNC(=O)CC[C@H](NC(=O)CCCCCCCCCCCCCCCCC(=O)O)C(=O)O)C(C)(C)SSC(C)(C)[C@@H](C(=O)N[C@@H](Cc2ccc(OCCN)cc2)C(=O)N[C@@H](Cc2ccc3ccccc3c2)C(=O)NC2(C(=O)N[C@@H](CCC(=O)O)C(=O)N[C@@H](CC(N)=O)C(=O)N[C@@H](Cc3cccnc3)C(=O)N(C)[C@@H](CCCCNC(=O)CCC(=O)N[C@H](CC(=O)O)C[N+](C)(C)C)C(N)=O)CCOCC2)NC1=O (stereo partly shown) [compound 43, HOC18gEPEG2PEG2CO-r-Pen(3)-N-T-7MeW-K(Ac)-Pen(3)-AEF-2Nal-THP-E-N-3Pya-NMeK(d)-CONH2] | < 50 | < 0.5
5 | CC(=O)NCCCC[C@@H]1NC(=O)[C@H](Cc2c[nH]c3c(C)cccc23)NC(=O)[C@H]([C@@H](C)O)NC(=O)[C@H](CC(N)=O)NC(=O)[C@@H](NC(=O)COCCOCCNC(=O)COCCOCCNC(=O)CC[C@H](NC(=O)CCCCCCCCCCCCCCCCC(=O)O)C(=O)O)C(C)(C)SSC(C)(C)[C@@H](C(=O)N[C@@H](Cc2ccc(OCCN)cc2)C(=O)N[C@@H](Cc2ccc3ccccc3c2)C(=O)NC2(C(=O)N[C@@H](CCCCNC(=O)CCC(=O)N[C@H](CC(=O)O)C[N+](C)(C)C)C(=O)N[C@@H](CC(N)=O)C(O)N[C@@H](Cc3cccnc3)C(=O)N(C)CC(N)=O)CCOCC2)NC1=O (stereo partly drawn) [compound 44, HOC18gEPEG2PEG2CO-Pen(3)-N-T-7MeW-K(Ac)-Pen(3)-AEF-2Nal-THP-K(d)-N-3Pya-Sar-CONH2] | < 50 | < 0.5

Continued, in another order:

Row | IC50 (IL-23R) [nM] | Compound | IC50 [1] [nM]
6 | 50 to 500 | CC(=O)NCCCC[C@@H]1NC(=O)[C@H](Cc2c[nH]c3c(C)cccc23)NC(=O)[C@H]([C@@H](C)O)NC(=O)[C@H](CC(N)=O)NC(=O)[C@@H](NC(=O)[C@@H](CCCNC(=N)N)NC(=O)COCCOCCNC(=O)COCCOCCNC(=O)CC[C@H](NC(=O)CCCCCCCCCCCCCCCCC(=O)O)C(=O)O)C(C)(C)SSC(C)(C)[C@@H](C(=O)N[C@@H](Cc2ccc(OCCN)cc2)C(=O)N[C@@H](Cc2ccc3ccccc3c2)C(=O)NC2(C(=O)N[C@@H](CCCCNC(=O)CCC(=O)N[C@H](CC(=O)O)C[N+](C)(C)C)C(=O)N[C@@H](CC(N)=O)C(O)N[C@@H](Cc3cccnc3)C(=O)N(C)CC(N)=O)CCOCC2)NC1=O (stereo partly drawn) [compound 45, HOC18gEPEG2PEG2CO-r-Pen(3)-N-T-7MeW-K(Ac)-Pen(3)-AEF-2Nal-THP-K(d)-N-3Pya-Sar-CONH2] ({C18 diacid-γGlu-AEEA-AEEA}-[dR][Pen]NT[Trp(7-Me)]K(Ac)[Pen][AEF][2Nal][Thp]K([Suc-X2])-X11; disulfide 2-7) | < 0.5
7 | < 50 | Cc1cccc2c(C[C@@H]3NC(=O)[C@H]([C@@H](C)O)NC(=O)[C@H](CC(N)=O)NC(=O)[C@@H](NC(=O)[C@@H](CCCNC(=N)N)NC(=O)COCCOCCNC(=O)COCCOCCNC(=O)CC[C@H](NC(=O)CCCCCCCCCCCCCCCCC(=O)O)C(=O)O)C(C)(C)SSC(C)(C)[C@@H](C(=O)N[C@@H](Cc4ccc(OCCN)cc4)C(=O)N[C@@H](Cc4ccc5ccccc5c4)C(=O)NC4(C(=O)N[C@@H](CCC(=O)O)C(=O)N[C@@H](CC(N)=O)C(=O)N[C@@H](Cc5cccnc5)C(=O)N(C)CC(N)=O)CCOCC4)NC(=O)[C@H](CCCCNC(=O)CCC(=O)N[C@H](CC(=O)O)C[N+](C)(C)C)NC3=O)c[nH]c12 [compound 46, HOC18gEPEG2PEG2CO-r-Pen(3)-N-T-7MeW-K(d)-Pen(3)-AEF-2Nal-THP-E-N-3Pya-Sar-CONH2] ({C18 diacid-γGlu-AEEA-AEEA}-[dR][Pen]NT[Trp(7-Me)]K([Suc-X2])[Pen][AEF][2Nal][Thp]EN[3Pal][Sar]-NH2; disulfide 2-7) | < 0.5
8 | 50 to 500 | CC(=O)N[C@H](CCCNC(=N)N)C(=O)N[C@@H]1C(=O)N[C@@H](CC(N)=O)C(=O)N[C@@H]([C@@H](C)O)C(=O)N[C@@H](Cc2c[nH]c3c(C)cccc23)C(=O)N[C@@H](CCCCNC(=O)CCC(=O)N[C@H](CC(=O)O)C[N+](C)(C)C)C(=O)N[C@H](C(=O)N[C@@H](Cc2ccc(OCCN)cc2)C(=O)N[C@@H](Cc2ccc3ccccc3c2)C(=O)NC2(C(=O)N[C@@H](CCCCNC(=O)COCCOCCNC(=O)COCCOCCNC(=O)CC[C@H](NC(=O)CCCCCCCCCCCCCCCCC(=O)O)C(=O)O)C(=O)N[C@@H](CC(N)=O)C(=O)N[C@@H](Cc3cccnc3)C(=O)N(C)CC(N)=O)CCOCC2)C(C)(C)SSC1(C)C [compound 48, MeCO-r-Pen(3)-N-T-7MeW-K(d)-Pen(3)-AEF-2Nal-THP-K(PEG2PEG2gEC18OH)-N-3Pya-Sar-CONH2] (Ac-[dR][Pen]NT[Trp(7-Me)]K([Suc-X2])[Pen][AEF][2Nal][Thp]K([AEEA-AEEA-γGlu-C18 diacid])N[3Pal][Sar]-NH2; disulfide 2-7) | < 0.5
